# From PubChem BioAssay (NCI)
#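 At the GI50, growth is halved. Definition used: TGI = concentration required for complete inhibition of growth.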
# Legend:
# Assay in all cases: NCI anticancer screen, dose series, 384-well format
# A498 renal = test system: A498 renal
# NCI-H322M lung = test system: NCI-H322M lung
# LOX IMVI melanoma = test system: LOX IMVI melanoma
# BT-549 breast = test system: BT-549 breast
# HCT-15 colon = test system: HCT-15 colon
# SK-MEL-2 melanoma = test system: SK-MEL-2 melanoma
# MOLT-4 leukemia = test system: MOLT-4 leukemia
# A549 NSCLC = test system: A549 NSCLC
# KM12 colon = test system: KM12 colon
# RPMI-8226 leukemia = test system: RPMI-8226 leukemia
# UACC-62 melanoma = test system: UACC-62 melanoma
# MCF7 breast = test system: MCF7 breast
# SNB-75 CNS = test system: SNB-75 CNS
# DU-145 prostate = test system: DU-145 prostate
# 786-0 renal = test system: 786-0 renal
# SF-295 CNS = test system: SF-295 CNS
# SF-539 CNS = test system: SF-539 CNS
# HS 578T breast = test system: HS 578T breast
# HOP-62 NSCLC = test system: HOP-62 NSCLC
# MDA-MB-468 breast = test system: MDA-MB-468 breast
# MALME-3M melanoma = test system: MALME-3M melanoma
# T-47D breast = test system: T-47D breast
# PC-3 prostate = test system: PC-3 prostate
# OVCAR-5 ovarian = test system: OVCAR-5 ovarian
# NCI-H460 NSCLC = test system: NCI-H460 NSCLC
# HOP-92 NSCLC = test system: HOP-92 NSCLC
# EKVX NSCLC = test system: EKVX NSCLC
# SK-OV-3 ovarian = test system: SK-OV-3 ovarian
# IGROV1 ovarian = test system: IGROV1 ovarian
# OVCAR-4 ovarian = test system: OVCAR-4 ovarian
# CAKI-1 renal = test system: CAKI-1 renal
# NCI-H522 lung = test system: NCI-H522 lung
# SW-620 colon = test system: SW-620 colon
# RXF 393 renal = test system: RXF 393 renal
# MDA-MB-435 melanoma = test system: MDA-MB-435 melanoma
# SK-MEL-5 melanoma = test system: SK-MEL-5 melanoma
# OVCAR-3 ovarian = test system: OVCAR-3 ovarian
# HL-60(TB) leukemia = test system: HL-60(TB) leukemia
# HT29 colon = test system: HT29 colon
# NCI-H226 lung = test system: NCI-H226 lung
# SR leukemia = test system: SR leukemia
# SK-MEL-28 melanoma = test system: SK-MEL-28 melanoma
# TK-10 renal = test system: TK-10 renal
# HCT-116 colon = test system: HCT-116 colon
# SF-268 CNS = test system: SF-268 CNS
# ACHN renal = test system: ACHN renal
# CCRF-CEM leukemia = test system: CCRF-CEM leukemia
# M14 melanoma = test system: M14 melanoma
# OVCAR-8 ovarian = test system: OVCAR-8 ovarian
# SN12C renal = test system: SN12C renal
# UACC-257 melanoma = test system: UACC-257 melanoma
# COLO 205 colon = test system: COLO 205 colon
# NCI-H23 lung = test system: NCI-H23 lung
# K-562 leukemia = test system: K-562 leukemia
# SNB-19 CNS = test system: SNB-19 CNS
# HCC-2998 colon = test system: HCC-2998 colon
# UO-31 renal = test system: UO-31 renal
# MDA-MB-231 breast = test system: MDA-MB-231 breast
# NCI/ADR-RES ovarian = test system: NCI/ADR-RES ovarian
# U251 glioblastoma = test system: U251 glioblastoma
smiles,measurement,setting,value
Cc1nc2c(-c3cnc(N)nc3)nc(N3CCOCC3)nc2n1C(C)C,GI50,A498 renal,55.9 nM
same,TGI,A498 renal,322 nM
same,GI50,NCI-H322M lung,125 nM
same,TGI,NCI-H322M lung,50500 nM
same,GI50,LOX IMVI melanoma,232 nM
same,TGI,LOX IMVI melanoma,860 nM
same,GI50,BT-549 breast,95.3 nM
same,TGI,BT-549 breast,469 nM
same,GI50,HCT-15 colon,76.1 nM
same,TGI,HCT-15 colon,> 100000 nM
same,GI50,SK-MEL-2 melanoma,566 nM
same,TGI,SK-MEL-2 melanoma,941 nM
same,GI50,MOLT-4 leukemia,61.8 nM
same,TGI,MOLT-4 leukemia,344 nM
same,GI50,A549 NSCLC,108 nM
same,TGI,A549 NSCLC,3600 nM
same,GI50,KM12 colon,270 nM
same,TGI,KM12 colon,> 100000 nM
same,GI50,RPMI-8226 leukemia,59.6 nM
same,TGI,RPMI-8226 leukemia,252 nM
same,GI50,UACC-62 melanoma,147 nM
same,TGI,UACC-62 melanoma,847 nM
same,GI50,MCF7 breast,36 nM
same,TGI,MCF7 breast,> 100000 nM
same,GI50,SNB-75 CNS,35.5 nM
same,TGI,SNB-75 CNS,220 nM
same,GI50,DU-145 prostate,149 nM
same,TGI,DU-145 prostate,> 100000 nM
same,GI50,786-0 renal,246 nM
same,TGI,786-0 renal,5940 nM
same,GI50,SF-295 CNS,79.1 nM
same,TGI,SF-295 CNS,431 nM
same,GI50,SF-539 CNS,167 nM
same,TGI,SF-539 CNS,1120 nM
same,GI50,HS 578T breast,66.1 nM
same,TGI,HS 578T breast,273 nM
same,GI50,HOP-62 NSCLC,158 nM
same,TGI,HOP-62 NSCLC,13000 nM
same,GI50,MDA-MB-468 breast,65.9 nM
same,TGI,MDA-MB-468 breast,351 nM
same,GI50,MALME-3M melanoma,44.3 nM
same,TGI,MALME-3M melanoma,262 nM
same,GI50,T-47D breast,31.3 nM
same,TGI,T-47D breast,166 nM
same,GI50,PC-3 prostate,52.8 nM
same,TGI,PC-3 prostate,> 100000 nM
same,GI50,OVCAR-5 ovarian,190 nM
same,TGI,OVCAR-5 ovarian,> 100000 nM
same,GI50,NCI-H460 NSCLC,39 nM
same,TGI,NCI-H460 NSCLC,> 100000 nM
same,GI50,HOP-92 NSCLC,67.5 nM
same,TGI,HOP-92 NSCLC,435 nM
same,GI50,EKVX NSCLC,86.6 nM
same,TGI,EKVX NSCLC,380 nM
same,GI50,SK-OV-3 ovarian,92.7 nM
same,TGI,SK-OV-3 ovarian,430 nM
same,GI50,IGROV1 ovarian,21.8 nM
same,TGI,IGROV1 ovarian,133 nM
same,GI50,OVCAR-4 ovarian,118 nM
same,TGI,OVCAR-4 ovarian,803 nM
same,GI50,CAKI-1 renal,75.1 nM
same,TGI,CAKI-1 renal,581 nM
same,GI50,NCI-H522 lung,92.2 nM
same,TGI,NCI-H522 lung,941 nM
same,GI50,SW-620 colon,460 nM
same,TGI,SW-620 colon,> 100000 nM
same,GI50,RXF 393 renal,78.9 nM
same,TGI,RXF 393 renal,379 nM
same,GI50,MDA-MB-435 melanoma,184 nM
same,TGI,MDA-MB-435 melanoma,845 nM
same,GI50,SK-MEL-5 melanoma,87.8 nM
same,TGI,SK-MEL-5 melanoma,337 nM
same,GI50,OVCAR-3 ovarian,107 nM
same,TGI,OVCAR-3 ovarian,713 nM
same,GI50,HL-60(TB) leukemia,156 nM
same,TGI,HL-60(TB) leukemia,1040 nM
same,GI50,HT29 colon,191 nM
same,TGI,HT29 colon,> 100000 nM
same,GI50,NCI-H226 lung,122 nM
same,TGI,NCI-H226 lung,2390 nM
same,GI50,SR leukemia,195 nM
same,TGI,SR leukemia,619 nM
same,GI50,SK-MEL-28 melanoma,153 nM
same,TGI,SK-MEL-28 melanoma,969 nM
same,GI50,TK-10 renal,54.9 nM
same,TGI,TK-10 renal,465 nM
same,GI50,HCT-116 colon,479 nM
same,TGI,HCT-116 colon,> 100000 nM
O=C1NC(=O)C(c2cnc3ccccn23)=C1c1cn2c3c(cc(F)cc13)CN(C(=O)N1CCCCC1)CC2,GI50,A498 renal,15.6 nM
same,TGI,A498 renal,13200 nM
same,GI50,NCI-H322M lung,7720 nM
same,TGI,NCI-H322M lung,29200 nM
same,GI50,SF-268 CNS,138 nM
same,TGI,SF-268 CNS,491 nM
same,GI50,LOX IMVI melanoma,770 nM
same,TGI,LOX IMVI melanoma,9290 nM
same,GI50,BT-549 breast,< 10 nM
same,TGI,BT-549 breast,18600 nM
same,GI50,HCT-15 colon,12400 nM
same,TGI,HCT-15 colon,34100 nM
same,GI50,MOLT-4 leukemia,< 10 nM
same,TGI,MOLT-4 leukemia,10.7 nM
same,GI50,A549 NSCLC,2360 nM
same,TGI,A549 NSCLC,27800 nM
same,GI50,ACHN renal,743 nM
same,TGI,ACHN renal,11300 nM
same,GI50,KM12 colon,4890 nM
same,TGI,KM12 colon,21600 nM
same,GI50,RPMI-8226 leukemia,901 nM
same,TGI,RPMI-8226 leukemia,20700 nM
same,GI50,CCRF-CEM leukemia,< 10 nM
same,TGI,CCRF-CEM leukemia,245 nM
same,GI50,UACC-62 melanoma,513 nM
same,TGI,UACC-62 melanoma,3740 nM
same,GI50,MCF7 breast,< 10 nM
same,TGI,MCF7 breast,17100 nM
same,GI50,SNB-75 CNS,< 10 nM
same,TGI,SNB-75 CNS,14400 nM
same,GI50,DU-145 prostate,2180 nM
same,TGI,DU-145 prostate,8620 nM
same,GI50,M14 melanoma,2180 nM
same,TGI,M14 melanoma,12000 nM
same,GI50,786-0 renal,77.9 nM
same,TGI,786-0 renal,12400 nM
same,GI50,SF-295 CNS,17.5 nM
same,TGI,SF-295 CNS,735 nM
same,GI50,SF-539 CNS,< 10 nM
same,TGI,SF-539 CNS,12700 nM
same,GI50,OVCAR-8 ovarian,833 nM
same,TGI,OVCAR-8 ovarian,14400 nM
same,GI50,HS 578T breast,< 10 nM
same,GI50,HOP-62 NSCLC,172 nM
same,TGI,HOP-62 NSCLC,2580 nM
same,GI50,SN12C renal,10700 nM
same,TGI,SN12C renal,38900 nM
same,GI50,MDA-MB-468 breast,28.3 nM
same,TGI,MDA-MB-468 breast,116 nM
same,GI50,MALME-3M melanoma,11100 nM
same,TGI,MALME-3M melanoma,24000 nM
same,GI50,UACC-257 melanoma,18600 nM
same,TGI,UACC-257 melanoma,33700 nM
same,GI50,COLO 205 colon,12700 nM
same,TGI,COLO 205 colon,26000 nM
same,GI50,NCI-H23 lung,11000 nM
same,TGI,NCI-H23 lung,25300 nM
same,GI50,T-47D breast,12700 nM
same,TGI,T-47D breast,28000 nM
same,GI50,PC-3 prostate,2170 nM
same,TGI,PC-3 prostate,18800 nM
same,GI50,OVCAR-5 ovarian,23000 nM
same,TGI,OVCAR-5 ovarian,55300 nM
same,GI50,NCI-H460 NSCLC,701 nM
same,TGI,NCI-H460 NSCLC,3170 nM
same,GI50,K-562 leukemia,< 10 nM
same,TGI,K-562 leukemia,19100 nM
same,GI50,SNB-19 CNS,1340 nM
same,TGI,SNB-19 CNS,37900 nM
same,GI50,HOP-92 NSCLC,1320 nM
same,TGI,HOP-92 NSCLC,> 100000 nM
same,GI50,EKVX NSCLC,11700 nM
same,TGI,EKVX NSCLC,26200 nM
same,GI50,HCC-2998 colon,128 nM
same,TGI,HCC-2998 colon,773 nM
same,GI50,IGROV1 ovarian,2730 nM
same,TGI,IGROV1 ovarian,22200 nM
same,GI50,UO-31 renal,< 10 nM
same,TGI,UO-31 renal,39.8 nM
same,GI50,OVCAR-4 ovarian,11400 nM
same,TGI,OVCAR-4 ovarian,32000 nM
same,GI50,CAKI-1 renal,259 nM
same,TGI,CAKI-1 renal,51400 nM
same,GI50,NCI-H522 lung,13500 nM
same,TGI,NCI-H522 lung,26700 nM
same,GI50,SW-620 colon,379 nM
same,TGI,SW-620 colon,15000 nM
same,GI50,MDA-MB-231 breast,16300 nM
same,TGI,MDA-MB-231 breast,54900 nM
same,GI50,NCI/ADR-RES ovarian,5910 nM
same,TGI,NCI/ADR-RES ovarian,21200 nM
same,GI50,U251 glioblastoma,30.3 nM
same,TGI,U251 glioblastoma,332 nM
same,GI50,RXF 393 renal,< 10 nM
same,TGI,RXF 393 renal,362 nM
same,GI50,MDA-MB-435 melanoma,14800 nM
same,TGI,MDA-MB-435 melanoma,40400 nM
same,GI50,SK-MEL-5 melanoma,4080 nM
same,TGI,SK-MEL-5 melanoma,15400 nM
same,GI50,HL-60(TB) leukemia,464 nM
same,TGI,HL-60(TB) leukemia,2720 nM
same,GI50,HT29 colon,10300 nM
same,TGI,HT29 colon,24500 nM
same,GI50,NCI-H226 lung,1840 nM
same,TGI,NCI-H226 lung,11400 nM
same,GI50,SK-MEL-28 melanoma,15200 nM
same,TGI,SK-MEL-28 melanoma,29200 nM
same,GI50,TK-10 renal,59.8 nM
same,TGI,TK-10 renal,43700 nM
same,GI50,HCT-116 colon,1120 nM
same,TGI,HCT-116 colon,28400 nM
